Patent US5591741A, “Fungicidal spiroheterocyclic derivatives” (American Cyanamid Company, priority 1993, dated 1997)

Experiments:
[1] = test system: Erysiphe graminis f.sp. hordei; test: Direct protectant activity against barley powdery mildew (EGP); assay type: in vivo; conditions: direct protectant foliar spray, 8 days
Method in brief: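 Barley seedlings (cv Golden Promise, single-leaf stage) were foliar-sprayed, held 24 h at 18 °C/40% RH, then dusted with mildew conidia. After 8 days at 18 °C/40% RH, sporulating leaf area was scored as a rating against untreated or diluent-sprayed controls.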

Alternaria solani = test: Activity against tomato early blight (AS); assay type: in vivo; conditions: Table VI; tomato seedlings, contact prophylactic foliar spray, 4 days
Method in brief: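 Foliar contact prophylactic spray on tomato seedlings (cv Outdoor Girl, second true leaf expanded) in acetone/water 50:50 with 0.04% Tween 20; 24 h at 20° C, 40% R.H., then inoculation with 10^4 spores/ml A. solani conidia. Kept moist at 21° C; lesion cover rated 4 days post-inoculation against untreated or diluent-sprayed controls.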

Botrytis cinerea = test: Direct protectant activity against broad bean grey mould (BCB); assay type: in vivo; conditions: direct protectant foliar spray, 600 ppm, 4 days
Method in brief: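 Broad bean plants (cv The Sutton, two leaf pairs) sprayed on upper leaf surfaces at 600 ppm, then inoculated 24 h later with 10^6 conidia/ml. Kept 4 days at 22 °C, high humidity; disease control rated from % leaf area with lesions against untreated or diluent controls.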

Venturia inaequalis = test: Activity against apple scab in-vitro (VII); assay type: cell-based; conditions: 10 ppm, 10 days, 20° C., mycelial growth
Method in brief: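 Compound in acetone was tested at 10 ppm final in half-strength Potato Dextrose Broth inoculated with V. inaequalis mycelial fragments and spores at 5×10^4 propagules/ml. After 10 days at 20° C, mycelial growth was rated against untreated or diluent controls.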

Rhizoctonia solani = test: Activity against Rhizoctonia in-vitro (RSI); assay type: cell-based; conditions: 10 ppm, 10 days, 20° C., mycelial growth
Method in brief: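 R. solani mycelial fragments (5×10^4/ml) in half-strength Potato Dextrose Broth with compound added from acetone to 10 ppm final. Mycelial growth assessed after 10 days at 20° C, rated against untreated or diluent control.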

Plasmopara viticola = test: Antisporulant activity against vine downy mildew (PVA); assay type: in vivo; conditions: vine leaves, antisporulant foliar spray, 600 ppm, 750 l/ha
Method in brief: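 Cabernet Sauvignon vines (~8 cm) inoculated on lower leaf surfaces with 5×10^4 zoosporangia/ml, held 24 h at 21° C high humidity then 24 h glasshouse. Infected leaves sprayed underside with 600 ppm compound in 1:1 water/acetone, 0.04% Tween 20, 750 l/ha; 96 h glasshouse, 24 h humidity. Sporulating leaf area rated versus control.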

Leptosphaeria nodorum = test: Activity against wheat leafspot (LN); assay type: in vivo; conditions: direct therapeutic foliar spray, 600 ppm, 6-8 days
Method in brief: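 Wheat cv Norman at single-leaf stage spray-inoculated with 1.5×10^6 conidia/ml, held 24 h at high humidity, then sprayed therapeutically with test compound at 600 ppm. Kept 6-8 days at 22° C, 70% humidity; lesion density per leaf rated against untreated or diluent-sprayed controls.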

Phytophthora infestans = assay type: in vivo; conditions: tomato, direct protectant foliar spray
[2] = test system: Erysiphe graminis f.sp. hordei; test: Activity against barley powdery mildew, direct therapeutic (EGT); assay type: in vivo; conditions: direct therapeutic foliar spray, 600 ppm, up to 7 days
Method in brief: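 Barley seedlings (cv. Golden Promise, single-leaf stage) were dusted with mildew conidia one day before a therapeutic foliar spray of 600 ppm compound. Plants were kept at 18 °C and 40% humidity for up to 7 days, and sporulating leaf area was rated against untreated or diluent-sprayed controls.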

[3] = test system: Pseudocercosporella herpotrichoides; test: Activity against wheat eyespot in-vitro (PHI); assay type: cell-based; conditions: 10 ppm, 10 days, 20° C., mycelial growth
Method in brief: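 P. herpotrichoides mycelial fragments (5×10^4/ml) grown in half-strength PDB with compound at 10 ppm final, added from acetone. Incubated 10 days at 20 °C; mycelial growth rated against untreated or diluent controls.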

Pyricularia oryzae = assay type: in vivo; conditions: rice seedlings, direct therapeutic foliar spray, 600 ppm, 4-5 days

| Compound | disease control rating EGP [1] | disease control rating AS (Alternaria solani) | disease control rating BCB (Botrytis cinerea) | disease control rating VII (Venturia inaequalis) | disease control rating RSI (Rhizoctonia solani) | disease control rating PVA (Plasmopara viticola) | disease control rating LN (Leptosphaeria nodorum) | disease control rating PIP (Phytophthora infestans) | disease control rating EGT [2] | disease control rating PHI [3] | disease control rating PO (Pyricularia oryzae) |
| --- | --- | --- | --- | --- | --- | --- | --- | --- | --- | --- | --- |
| CC(C)(C)CC(C)(C)NC1COC2(CCC(C(C)(C)C)CC2)C1 (centres unmarked) [Compound 106] | 2 (greater than 80% disease control) | 0 (less than 50% disease control) | 0 (less than 50% disease control) | 1 (about 50-80% disease control) | 0 (less than 50% disease control) | 0 (less than 50% disease control) | 0 (less than 50% disease control) | 2 (greater than 80% disease control) | 2 (greater than 80% disease control) | 0 (less than 50% disease control) | 0 (less than 50% disease control) |
| CC(C)CCCC(C)NC1COC2(CCC(C(C)(C)C)CC2)C1 (centres unmarked) [Compound 107] | 2 (greater than 80% disease control) | 0 (less than 50% disease control) | 0 (less than 50% disease control) | 1 (about 50-80% disease control) | 1 (about 50-80% disease control) | 0 (less than 50% disease control) | 0 (less than 50% disease control) | 2 (greater than 80% disease control) | 2 (greater than 80% disease control) | 1 (about 50-80% disease control) | 0 (less than 50% disease control) |
| CC(C)(C)C1CCC2(CC1)CC(NCCC1=CCCCC1)CO2 (centres unmarked) [Compound 108] | 2 (greater than 80% disease control) | 0 (less than 50% disease control) | 2 (greater than 80% disease control) | 1 (about 50-80% disease control) | 1 (about 50-80% disease control) | 0 (less than 50% disease control) | 0 (less than 50% disease control) | 2 (greater than 80% disease control) | 2 (greater than 80% disease control) | 1 (about 50-80% disease control) | 0 (less than 50% disease control) |
| CC(C)(C)C1CCC(NC2COC3(CCC(C(C)(C)C)CC3)C2)CC1 (centres unmarked) [Compound 109] | 2 (greater than 80% disease control) | 1 (about 50-80% disease control) | 2 (greater than 80% disease control) | 2 (greater than 80% disease control) | 1 (about 50-80% disease control) | 0 (less than 50% disease control) | 0 (less than 50% disease control) | 2 (greater than 80% disease control) | 2 (greater than 80% disease control) | 1 (about 50-80% disease control) | 0 (less than 50% disease control) |
| CC(C)CC(C)NC1COC2(CCC(C(C)(C)C)CC2)C1 (centres unmarked) [Compound 110] | 2 (greater than 80% disease control) | 0 (less than 50% disease control) | 1 (about 50-80% disease control) | 1 (about 50-80% disease control) | 1 (about 50-80% disease control) | 0 (less than 50% disease control) | 0 (less than 50% disease control) | 2 (greater than 80% disease control) | 2 (greater than 80% disease control) | 1 (about 50-80% disease control) | 0 (less than 50% disease control) |
| CC(C)(C)CCNC1COC2(CCC(C(C)(C)C)CC2)C1 (centres unmarked) [Compound 111] | 2 (greater than 80% disease control) | 0 (less than 50% disease control) | 1 (about 50-80% disease control) | 1 (about 50-80% disease control) | 1 (about 50-80% disease control) | 0 (less than 50% disease control) | 0 (less than 50% disease control) | 2 (greater than 80% disease control) | 2 (greater than 80% disease control) | 0 (less than 50% disease control) | 0 (less than 50% disease control) |
| CCC(C)CC(C)NC1COC2(CCC(C(C)(C)C)CC2)C1 (centres unmarked) [Compound 112] | 2 (greater than 80% disease control) | 0 (less than 50% disease control) | 0 (less than 50% disease control) | 1 (about 50-80% disease control) | 1 (about 50-80% disease control) | 0 (less than 50% disease control) | 0 (less than 50% disease control) | 2 (greater than 80% disease control) | 2 (greater than 80% disease control) | 1 (about 50-80% disease control) | 0 (less than 50% disease control) |
| C1CCC2CN(C3COC4(C3)C3CC5CC(C3)CC4C5)CCC2C1 (centres unmarked) [Compound 113] | 1 (about 50-80% disease control) | 0 (less than 50% disease control) | 1 (about 50-80% disease control) | 1 (about 50-80% disease control) | 0 (less than 50% disease control) | 0 (less than 50% disease control) | 0 (less than 50% disease control) | 1 (about 50-80% disease control) | 0 (less than 50% disease control) | 0 (less than 50% disease control) | 0 (less than 50% disease control) |
| CC(C)(C)C1CCC2(CC1)CC(N1CCc3ccccc3C1)CO2 (centres unmarked) [Compound 114] | 2 (greater than 80% disease control) | 1 (about 50-80% disease control) | 2 (greater than 80% disease control) | 1 (about 50-80% disease control) | 0 (less than 50% disease control) | 0 (less than 50% disease control) | 0 (less than 50% disease control) | 2 (greater than 80% disease control) | 2 (greater than 80% disease control) | 0 (less than 50% disease control) | 0 (less than 50% disease control) |
| CCCCCCCCNC1COC2(C1)C1CC3CC(C1)CC2C3 (centres unmarked) [Compound 115] | 2 (greater than 80% disease control) | 0 (less than 50% disease control) | 0 (less than 50% disease control) | 2 (greater than 80% disease control) | 0 (less than 50% disease control) | 0 (less than 50% disease control) | 0 (less than 50% disease control) | 1 (about 50-80% disease control) | 2 (greater than 80% disease control) | 1 (about 50-80% disease control) | 0 (less than 50% disease control) |
